Each structure is given as a SMILES string.

The record followed here is ChEMBL document CHEMBL3301472, “MMV Malaria Box HIV and cytotoxicity screening”.

Holding throughout (assay type): toxicity, cell-based
Data set [1] is described as follows: MMV: MTT Cytotoxicity Assay Day 3 pi, U87-CD4-CCR5 cells, % cell death @ 5mM compound. The note with it: human, u87-cd4-ccr5, 5000 µM.
Data set [2] in a line: MMV: MTT Cytotoxicity Assay Day 7 pi of Assay #7 (compound washed out Day 1 pi), U87-CD4-CXCR4 cells, % cell death @ 5mM compound. The note with it: human, u87-cd4-cxcr4, 5000 µM.
Data set [3] is described as follows: MMV: MTT Cytotoxicity Assay Day 7 pi of Assay #11 (NO washout), U87-CD4-CXCR4 cells, % cell death @ 5mM compound. The conditions noted are these: human, u87-cd4-cxcr4, 5000 µM.
Data set [4] in a line: MMV: MTT Cytotoxicity Assay Day 7 pi of Assay #10 (NO washout), U87-CD4-CCR5 cells, % cell death @ 5mM compound. The conditions noted are these: human, u87-cd4-ccr5, 5000 µM.
The nature of data set [5]: MMV: MTT Cytotoxicity Assay Day 3 pi, U87-CD4-CXCR4 cells, % cell death @ 5mM compound. The conditions noted are these: human, u87-cd4-cxcr4, 5000 µM.
Data set [6] is described as follows: MMV: MTT Cytotoxicity Assay Day 7 pi of Assay #6 (compound washed out Day 1 pi), U87-CD4-CCR5 cells, % cell death @ 5mM compound. The note with it: human, u87-cd4-ccr5, 5000 µM.

For `O=C(NCCCN1CCC(N2CCCCC2)CC1)C1=Cc2cc(Br)ccc2OC1`, the “% Cell Death” value in data set [1] was 52; in data set [2], -28; in data set [3], -57; in data set [4], 14; in data set [5], 10; in data set [6] it was 31.

On to `O=C(NC(c1ccccc1)c1ccc2cccnc2c1O)c1ccccc1` (centres undefined), for which the “% Cell Death” value is -19 in data set [1]; -26 in data set [2]; 39 in data set [3]; 122 in data set [4]; 12 in data set [5]; 43 in data set [6].

Turning to `O=C(NC1CCN(Cc2ccccc2)CC1)c1cc(C(=O)NC2CCN(Cc3ccccc3)CC2)cc(C(=O)NC2CCN(Cc3ccccc3)CC2)c1`, the “% Cell Death” value in data set [1] worked out at 12; in data set [2] it was 72; in data set [3], 71; in data set [4] it was 48; in data set [5], 60; in data set [6], 14.

Regarding `Cl.OC(CNCc1ccccc1)Cn1c2ccccc2c2ccccc21` (centres undefined), the “% Cell Death” value was 19 in data set [1]; -9 in data set [2]; -23 in data set [3]; 11 in data set [4]; 18 in data set [5]; 10 in data set [6].

For the compound `COc1ccc2c(c1OC)C(=O)N1c3ccccc3N=C(c3ccc(C)cc3)CC21` (centres undefined), the “% Cell Death” value is 87 in data set [1]; 1 in data set [2]; 102 in data set [3]; 78 in data set [4]; 72 in data set [5]; 17 in data set [6].

As for `CCOC(=O)C1=C(c2ccccc2)N=c2sc(=Cc3cc(C)n(-c4ccc(F)cc4)c3C)c(=O)n2C1c1cccc(OC)c1OC` (centres undefined), the “% Cell Death” value is given as 18 in data set [1]; -3 in data set [2]; 20 in data set [3]; -17 in data set [4]; 45 in data set [5]; 5 in data set [6].

`COc1ccc(-c2cc(=O)oc3c4c(ccc23)OCN(Cc2ccc(F)cc2)C4)cc1`: the “% Cell Death” value is on record as 20 in data set [1]; -9 in data set [2]; -26 in data set [3]; 29 in data set [4]; 21 in data set [5]; 16 in data set [6].

Turning to `CCOc1ccccc1CNC(=O)C1c2ccccc2C(=O)N(CC(C)C)C1c1cccs1` (centres undefined), the “% Cell Death” value in data set [1] was -26; in data set [2], -26; in data set [3], 4; in data set [4], 20; in data set [5], 12; in data set [6], 2.

For the compound `COCCN(C(=O)Cc1cccs1)C(C(=O)NCc1ccc(OC)cc1)c1ccc(C(C)C)cc1` (centres undefined), the “% Cell Death” value is on record as 13 in data set [1]; -10 in data set [2]; 68 in data set [3]; 140 in data set [4]; 12 in data set [5]; 16 in data set [6].

In the case of `CCOc1c(Br)cc(C2C(C(=O)OC)=CN(C)C=C2C(=O)OC)cc1OC`, the “% Cell Death” value in data set [1] is recorded as 30; in data set [2] it was 19; in data set [3] it was 30; in data set [4], 30; in data set [5], 21; in data set [6] it was -1.

For `O=C1c2ccccc2C2=Nc3ccccc3SC(c3cccc(F)c3)C12` (centres undefined), the “% Cell Death” value in data set [1] was 11; in data set [2], 28; in data set [3] it was 4; in data set [4], 7; in data set [5], 20; in data set [6] it was -3.

`FC(F)(F)c1cccc(Nc2nc3ccccc3nc2Nc2cccc(C(F)(F)F)c2)c1`: the “% Cell Death” value was -15 in data set [1]; 3 in data set [2]; -12 in data set [3]; 25 in data set [4]; 15 in data set [5]; 15 in data set [6].

Take `Cc1cc(C=C2SC(=Nc3ccccc3)N(C3CCCC3)C2=O)c(C)n1-c1ccc(Cl)cc1`: the “% Cell Death” value in data set [1] is on record as 96; in data set [2], 36; in data set [3], 90; in data set [4] it was 140; in data set [5], 65; in data set [6], 8.

Consider `COc1cccc(O)c1CN1CCC2(CCCN(Cc3ccc(F)cc3)C2)C1` (centres undefined), for which the “% Cell Death” value in data set [1] is listed as -63; in data set [2], 21; in data set [3], 6; in data set [4] it was 7; in data set [5] it was -7; in data set [6], -1.

As to `COc1cc(C(=O)Nc2ccc(-c3nc4ccccc4[nH]3)cc2)cc(OC)c1OC`, the “% Cell Death” value in data set [1] was -27; in data set [2], -7; in data set [3] it was -49; in data set [4], 29; in data set [5], 29; in data set [6], -4.

Consider `Cc1ccc(Nc2nc(-c3ccccn3)cs2)cc1`, for which the “% Cell Death” value was 24 in data set [1]; -17 in data set [2]; 12 in data set [3]; 21 in data set [4]; 29 in data set [5]; 20 in data set [6].

`CCOc1cc(Cl)c(C(C)NC(=O)c2cccc(OC)c2)cc1OCC` (centres undefined): the “% Cell Death” value in data set [1] is on record as -1; in data set [2], 16; in data set [3], 28; in data set [4], 24; in data set [5], 37; in data set [6], 10.

`CCCCc1ccc(NS(=O)(=O)c2cc3c4c(c2)CCN4C(=O)CC3)cc1`: the “% Cell Death” value in data set [1] is given as 6; in data set [2], 1; in data set [3], 93; in data set [4], 85; in data set [5], 20; in data set [6] it was 47.

`Cc1ccccc1OCCSc1nc2ccc(NC(=O)c3cccs3)cc2s1`: the “% Cell Death” value in data set [1] came to 110; in data set [2], 81; in data set [3], 106; in data set [4] it was 107; in data set [5], 101; in data set [6] it was 103.

As for `CCOC(=O)c1cn(CC)c2cc(N(C)CCc3ccc(OC)c(OC)c3)c(F)cc2c1=O`, the “% Cell Death” value in data set [1] is on record as 22; in data set [2], -40; in data set [3], -17; in data set [4], 27; in data set [5], -10; in data set [6], -4.

For the compound `CN1CCN(c2c3c(c(C#N)c4nc5ccccc5n24)CCC3)CC1`, the “% Cell Death” value in data set [1] is -3; in data set [2], -15; in data set [3], 16; in data set [4], 8; in data set [5] it was -10; in data set [6], 1.

As for `O=C(Nc1ccc(CN2CCOCC2)cc1)c1ccc(-c2ccc(Br)cc2)o1`, the “% Cell Death” value is 20 in data set [1]; -2 in data set [2]; 6 in data set [3]; 96 in data set [4]; 15 in data set [5]; 14 in data set [6].

Turning to `Oc1c2c(nc3cc(-c4ccccc4)nn13)CCCC2`, the “% Cell Death” value in data set [1] is on record as 37; in data set [2], -10; in data set [3] it was -22; in data set [4] it was 1; in data set [5], 6; in data set [6], 26.

As to `OC(CNC1CCCC1)Cn1c2ccccc2c2ccccc21` (centres undefined), the “% Cell Death” value was 10 in data set [1]; -15 in data set [2]; -3 in data set [3]; 7 in data set [4]; 31 in data set [5]; 2 in data set [6].

In the case of `O=C(NC1CCN(Cc2ccccc2)CC1)c1cc2nc(-c3ccc(Cl)s3)cc(C(F)(F)F)n2n1`, the “% Cell Death” value in data set [1] is reported as -2; in data set [2], -15; in data set [3], 11; in data set [4], 46; in data set [5], 31; in data set [6], -12.

Take `Cn1c(=O)c2cc(C(=O)NCCCN3CCCCCC3)sc2c2ccccc21`: the “% Cell Death” value in data set [1] is 4; in data set [2] it was -51; in data set [3] it was 29; in data set [4], 23; in data set [5], 29; in data set [6], 35.

Regarding `Fc1ccc2[nH]c3c(NCCCN4CCOCC4)ncnc3c2c1`, the “% Cell Death” value is reported as -1 in data set [1]; 7 in data set [2]; 49 in data set [3]; 38 in data set [4]; 36 in data set [5]; 34 in data set [6].

In the case of `COc1ccc(OC)c(C2C3=C(CC(C)(C)CC3=O)N(c3ccc(Cl)c(Cl)c3)C3=C2C(=O)CC(C)(C)C3)c1`, the “% Cell Death” value in data set [1] was 9; in data set [2], 5; in data set [3], 3; in data set [4], -4; in data set [5], 31; in data set [6], 28.

`O=C(c1ccccc1F)N(Cc1ccc(Cl)cc1)c1ccccn1`: the “% Cell Death” value is 50 in data set [1]; -34 in data set [2]; 71 in data set [3]; 87 in data set [4]; 44 in data set [5]; 22 in data set [6].
